Measured values: patent US10709769B2, “Use of endostatin peptides for the treatment of fibrosis” (University of Pittsburgh—Of the Commonwealth System of …, priority 2009, dated 2020)

Tested on: mouse skin
Assay: Bleomycin-induced dermal fibrosis in vivo in mouse skin
Settings: single administration 10 μg/ml on first day, daily bleomycin s.c., skin harvested after 10 days
Description: FIGS. 8A-8B. The effect of endostatin E-4 on bleomycin induced dermal fibrosis in vivo. A: Mice were injected subcutaneously with 1×PBS as vehicle (V) or Bleomycin (Bleo; 20 μg/mouse) daily. E-4 (10 μg/ml) was mixed with bleomycin on the first day, and daily bleomycin administration was continued without subsequent injections of E4 (Bleo+E-4). Skin was harvested after 10 days. Sections were stained with H&E. Magnification, 100×. B: Graphical summary of dermal thickness data shown in A. Data represent three independent experiments. Mann-Whitney U test was used for statistical analysis. * P<0.001, ** P<0.00001.
E4, a peptide representing the carboxy terminus of human endostatin, can attenuate fibrosis triggered by multiple fibrogenic factors. The anti-fibrotic effects of E4 can be detected whether administered concomitantly with or following the fibrogenic trigger. […]
For these studies, fibrosis was assessed by measurement of dermal thickness on H&E skin sections (skin), assessment of collagen levels by Masson Trichrome staining (skin and lung), and measurement of collagen levels by Sircol assay (lung). […] Results were assessed using the unpaired t test and the 3-way ANOVA (for the ID1 data).

## H-^133SYCETWRTEAPSATGQASSLLGGRLLGQSAASCHHAYIVLCIENSFMT^180-CONH2 (H-SYCETWRTEAPSATGQASSLLGGRLLGQSAASCHHAYIVLCIENSFMT-NH2; cysteine pairing not given here; UniProt P39060 1704-1751, looked up, fragment) [E4, amino acids 133-180 of human endostatin; differs from E3 by the presence of a carboxy-terminal amide]
  bleomycin induced dermal fibrosis (dermal thickness): significant attenuation
